Columns and labels:
windgrass [1] = assay: Test Example 5: herbicidal effect by foliage application, plastic box (Table 20, symbol L); type: in vivo, windgrass (Apera spica-venti); conditions: foliage application, 320 g/ha, evaluated three weeks after application
Method in brief: (§1)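 Foliar spray test: emulsion formulation diluted in water to a set application rate, sprayed onto 14-day-old plants raised in diluvial soil at 25° C to 30° C under glass. Both herbicidal effect and crop effect rated visually three weeks later.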

blackgrass = assay: Test Example 5: herbicidal effect by foliage application, plastic box (Table 20, symbol J); type: in vivo, blackgrass (Alopecurus myosuroides); conditions: foliage application, 320 g/ha, evaluated three weeks after application
Method in brief: as §1

Japanese bulrush = assay: Test Example 1: herbicidal activity, application before weed generation under submerged conditions (Table 16, symbol B); type: in vivo, Japanese bulrush (Schoenoplectus juncoides); conditions: 320 g/ha applied herbicide
Method in brief: (§2)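 Alluvial soil was flooded to 4 cm depth, weed seeds were sown mixed and 2.5-leaf rice seedlings were transplanted. On sowing day, the compound's emulsion, diluted in water to a set dose, was applied to the water surface. Plants grew at 25–30 °C and were scored 0–5 after three weeks.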

velvetleaf [2] = assay: Test Example 5: herbicidal effect by foliage application, plastic box (Table 20, symbol M); type: in vivo, velvetleaf (Abutilon theophrasti); conditions: foliage application, 320 g/ha, evaluated three weeks after application
Method in brief: as §1

wild oat [3] = assay: Test Example 5: herbicidal effect by foliage application, plastic box (Table 20, symbol I); type: in vivo, wild oat (Avena fatua); conditions: foliage application, 320 g/ha, evaluated three weeks after application
Method in brief: as §1

wild oat [4] = assay: Test Example 4: herbicidal effect by soil treatment (Table 19, symbol I); type: in vivo, wild oat (Avena fatua); conditions: amount of applied herbicide 320 g/ha
Method in brief: (§3)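 Step 1: sow seeds in sterilized diluvial soil, cover ~1.5 cm. Step 2: spray diluted emulsion onto soil surface at predetermined rate. Step 3: greenhouse, 25–30° C, three weeks. Step 4: grade effect on each plant by earlier criteria.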

lambsquarters = assay: Test Example 4: herbicidal effect by soil treatment (Table 19, symbol O); type: in vivo, lambsquarters (Chenopodium album); conditions: amount of applied herbicide 320 g/ha
Method in brief: as §3

green foxtail = assay: Test Example 5: herbicidal effect by foliage application, plastic box (Table 20, symbol G); type: in vivo, green foxtail (Setaria viridis); conditions: foliage application, 320 g/ha, evaluated three weeks after application
Method in brief: as §1

barnyard grass [5] = assay: Test Example 4: herbicidal effect by soil treatment (Table 19, symbol H); type: in vivo, barnyard grass (Echinochloa crus-galli); conditions: amount of applied herbicide 320 g/ha
Method in brief: as §3

Chinese sprangletop = assay: Test Example 3: herbicidal effect by foliage application, Wagner pot (Table 18, symbol D); type: in vivo, chinese sprangletop (Leptochloa chinensis); conditions: amount of applied herbicide 320 g/ha
Method in brief: (§4)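 Plants were sown in alluvial soil held under 0.1–0.5 cm standing water and grown 14 days in a greenhouse at 25–30 °C. An emulsifiable formulation, water-diluted to the set dose, was then sprayed onto the foliage, and effects were scored three weeks later using previously defined criteria.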

chickweed = assay: Test Example 5: herbicidal effect by foliage application, plastic box (Table 20, symbol P); type: in vivo, common chickweed (Stellaria media); conditions: foliage application, 320 g/ha, evaluated three weeks after application
Method in brief: as §1

oval-leafed pondweed = assay: Test Example 1: herbicidal activity, application before weed generation under submerged conditions (Table 16, symbol C); type: in vivo, oval-leafed pondweed (Monochoria vaginalis); conditions: 320 g/ha applied herbicide
Method in brief: as §2

windgrass [6] = assay: Test Example 4: herbicidal effect by soil treatment (Table 19, symbol L); type: in vivo, windgrass (Apera spica-venti); conditions: amount of applied herbicide 320 g/ha
Method in brief: as §3

barnyard grass [7] = assay: Test Example 3: herbicidal effect by foliage application, Wagner pot (Table 18, symbol H); type: in vivo, barnyard grass (Echinochloa crus-galli); conditions: amount of applied herbicide 320 g/ha
Method in brief: as §4

late watergrass = assay: Test Example 2: herbicidal activity, application during weed generation under submerged conditions (Table 17, symbol A); type: in vivo, late watergrass (Echinochloa oryzicola); conditions: AAH 320 g/ha; application during weed generation, submerged conditions
Method in brief: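 3-wk visual-criteria score after one water-surface dose. Emulsion formulation, water-diluted to set rate; applied at 1–2 leaf stage; alluvial soil, 4 cm standing water; seeds co-sown; greenhouse 25–30° C.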

velvetleaf [8] = assay: Test Example 4: herbicidal effect by soil treatment (Table 19, symbol M); type: in vivo, velvetleaf (Abutilon theophrasti); conditions: amount of applied herbicide 320 g/ha
Method in brief: as §3

rice flat sedge = assay: Test Example 3: herbicidal effect by foliage application, Wagner pot (Table 18, symbol E); type: in vivo, rice flat sedge (Cyperus iria); conditions: amount of applied herbicide 320 g/ha
Method in brief: as §4

| SMILES | herbicidal effect on L: windgrass (criteria 0-5) (windgrass [1]) | herbicidal effect on J: blackgrass (criteria 0-5) (blackgrass) | Herbicidal effect on B: Japanese bulrush (grade 0-5) (Japanese bulrush) | herbicidal effect on M: velvetleaf (criteria 0-5) (velvetleaf [2]) | herbicidal effect on I: wild oat (criteria 0-5) (wild oat [3]) | I: wild oat, herbicidal effect rating (wild oat [4]) | O: lambsquarters, herbicidal effect rating (lambsquarters) | herbicidal effect on G: green foxtail (criteria 0-5) (green foxtail) | H: barnyard grass, herbicidal effect rating (barnyard grass [5]) | herbicidal effect on D: Chinese sprangletop (Chinese sprangletop) | herbicidal effect on P: chickweed (criteria 0-5) (chickweed) | Herbicidal effect on C: oval-leafed pondweed (grade 0-5) (oval-leafed pondweed) | L: windgrass, herbicidal effect rating (windgrass [6]) | herbicidal effect on H: barnyard grass (barnyard grass [7]) | herbicidal effect rating, A: late watergrass (late watergrass) | M: velvetleaf, herbicidal effect rating (velvetleaf [8]) | herbicidal effect on E: rice flat sedge (rice flat sedge) |
| --- | --- | --- | --- | --- | --- | --- | --- | --- | --- | --- | --- | --- | --- | --- | --- | --- | --- |
| C=Cc1ccc2sc(-c3ccccc3OC)c(-c3c(O)c(C)nn(C)c3=O)c2c1 [2-185] | 1 (Herbicidal rate of 5% or more and less than 20%) | 1 (Herbicidal rate of 5% or more and less than 20%) | 5 (Herbicidal rate of 90% or more (almost completely withered)) | 5 (Herbicidal rate of 90% or more (almost completely withered)) | 0 (Herbicidal rate of 5% or less (almost no effect)) | 0 (Herbicidal rate of 5% or less (almost no effect)) | 1 (Herbicidal rate of 5% or more and less than 20%) | 3 (Herbicidal rate of 40% or more and less than 70%) | 0 (Herbicidal rate of 5% or less (almost no effect)) | 0 (Herbicidal rate of 5% or less (almost no effect)) | 5 (Herbicidal rate of 90% or more (almost completely withered)) | 5 (Herbicidal rate of 90% or more (almost completely withered)) | 0 (Herbicidal rate of 5% or less (almost no effect)) | 3 (Herbicidal rate of 40% or more and less than 70%) | 3 (Herbicidal rate of 40% or more and less than 70%) | 0 (Herbicidal rate of 5% or less (almost no effect)) | 2 (Herbicidal rate of 20% or more and less than 40%) |
| Cc1nn(C)c(=O)c(-c2c(-c3ccccc3)sc3ccc(F)cc23)c1O [2-197] | 4 (Herbicidal rate of 70% or more and less than 90%) | 4 (Herbicidal rate of 70% or more and less than 90%) | 3 (Herbicidal rate of 40% or more and less than 70%) | 5 (Herbicidal rate of 90% or more (almost completely withered)) | 4 (Herbicidal rate of 70% or more and less than 90%) | 1 (Herbicidal rate of 5% or more and less than 20%) | 5 (Herbicidal rate of 90% or more (almost completely withered)) | 5 (Herbicidal rate of 90% or more (almost completely withered)) | 5 (Herbicidal rate of 90% or more (almost completely withered)) | 5 (Herbicidal rate of 90% or more (almost completely withered)) | 5 (Herbicidal rate of 90% or more (almost completely withered)) | 3 (Herbicidal rate of 40% or more and less than 70%) | 1 (Herbicidal rate of 5% or more and less than 20%) | 5 (Herbicidal rate of 90% or more (almost completely withered)) | 3 (Herbicidal rate of 40% or more and less than 70%) | 4 (Herbicidal rate of 70% or more and less than 90%) | 5 (Herbicidal rate of 90% or more (almost completely withered)) |
| CCCC(=O)Oc1c(C)nn(C)c(=O)c1-c1c(-c2ccccc2)sc2ccc(F)cc12 [2-198] | 4 (Herbicidal rate of 70% or more and less than 90%) | 4 (Herbicidal rate of 70% or more and less than 90%) | 3 (Herbicidal rate of 40% or more and less than 70%) | 5 (Herbicidal rate of 90% or more (almost completely withered)) | 4 (Herbicidal rate of 70% or more and less than 90%) | 4 (Herbicidal rate of 70% or more and less than 90%) | 4 (Herbicidal rate of 70% or more and less than 90%) | 4 (Herbicidal rate of 70% or more and less than 90%) | 4 (Herbicidal rate of 70% or more and less than 90%) | 5 (Herbicidal rate of 90% or more (almost completely withered)) | 5 (Herbicidal rate of 90% or more (almost completely withered)) | 3 (Herbicidal rate of 40% or more and less than 70%) | 3 (Herbicidal rate of 40% or more and less than 70%) | 5 (Herbicidal rate of 90% or more (almost completely withered)) | 2 (Herbicidal rate of 20% or more and less than 40%) | 3 (Herbicidal rate of 40% or more and less than 70%) | 5 (Herbicidal rate of 90% or more (almost completely withered)) |
| Cc1nn(C)c(=O)c(-c2c(-c3ccccc3F)sc3ccc(F)cc23)c1O [2-199] | 0 (Herbicidal rate of 5% or less (almost no effect)) | 3 (Herbicidal rate of 40% or more and less than 70%) | 3 (Herbicidal rate of 40% or more and less than 70%) | 5 (Herbicidal rate of 90% or more (almost completely withered)) | 1 (Herbicidal rate of 5% or more and less than 20%) | 0 (Herbicidal rate of 5% or less (almost no effect)) | 4 (Herbicidal rate of 70% or more and less than 90%) | 5 (Herbicidal rate of 90% or more (almost completely withered)) | 4 (Herbicidal rate of 70% or more and less than 90%) | 5 (Herbicidal rate of 90% or more (almost completely withered)) | 5 (Herbicidal rate of 90% or more (almost completely withered)) | 2 (Herbicidal rate of 20% or more and less than 40%) | 0 (Herbicidal rate of 5% or less (almost no effect)) | 5 (Herbicidal rate of 90% or more (almost completely withered)) | 0 (Herbicidal rate of 5% or less (almost no effect)) | 1 (Herbicidal rate of 5% or more and less than 20%) | 5 (Herbicidal rate of 90% or more (almost completely withered)) |
| Cc1nn(C)c(=O)c(-c2c(-c3ccc(Br)cc3)sc3ccc(F)cc23)c1O [2-205] | 5 (Herbicidal rate of 90% or more (almost completely withered)) | 4 (Herbicidal rate of 70% or more and less than 90%) | 3 (Herbicidal rate of 40% or more and less than 70%) | 5 (Herbicidal rate of 90% or more (almost completely withered)) | 4 (Herbicidal rate of 70% or more and less than 90%) | 1 (Herbicidal rate of 5% or more and less than 20%) | 5 (Herbicidal rate of 90% or more (almost completely withered)) | 5 (Herbicidal rate of 90% or more (almost completely withered)) | 4 (Herbicidal rate of 70% or more and less than 90%) | 4 (Herbicidal rate of 70% or more and less than 90%) | 5 (Herbicidal rate of 90% or more (almost completely withered)) | 1 (Herbicidal rate of 5% or more and less than 20%) | 0 (Herbicidal rate of 5% or less (almost no effect)) | 5 (Herbicidal rate of 90% or more (almost completely withered)) | 2 (Herbicidal rate of 20% or more and less than 40%) | 2 (Herbicidal rate of 20% or more and less than 40%) | 5 (Herbicidal rate of 90% or more (almost completely withered)) |
